Key:
[1] = system: mL9.5 (SEQ. ID. NO. 21); test: Fluorogen activation by purified monomeric FAP mL9.5 (spectra); type: biochemical; conditions: purified protein, about 300 nM fluorogen, PBS pH 7.4
Text: (§1) While the peptide linker that joins the VL units in dL9.2 (SEQ. ID. NO. 2) and dL9.5 (SEQ. ID. NO. 3) enhance fluorogen binding affinity and binding rate by reducing the entropic cost of assembly around the fluorogen, the linker is not strictly necessary for fluorogenic activation. […] In panels C and D, corresponding spectra from mL9.5:SKC602 (SEQ. ID. NO. 21:SKC602) and mL9.5:SKC728 (SEQ. ID. NO. 21:SKC728) fluoromodules are shown. Spectra were obtained using a Quantamaster™ fluorometer (PTI) equipped with dual monochromators on both excitation and emission light paths.
(§2) To facilitate ligase-dependent cloning methods, the above procedure was repeated for dL9.5 (SEQ. ID. NO. 6), using otherwise identical primers that appended BspEI (TCCGGA) (SEQ. ID. NO. 25) and BamHI (GGATCC) (SEQ. ID. NO. 26) sites directly at the 5′ and 3′ termini, respectively, of the dL9.5 gene (SEQ. ID. NO. 6). The resulting plasmid, designated pPNL9z-dL9.5, could be digested with BspEI (SEQ. ID. NO. 25) and BamHI (SEQ. ID. NO. 26) to produce a yeast expression vector backbone capable of receiving inserts with like-digested termini. […]

[2] = system: mL9.3 (SEQ. ID. NO. 20); test: Fluorogen activation by purified monomeric FAP mL9.3 (spectra); type: biochemical; conditions: purified protein, about 300 nM fluorogen, PBS pH 7.4
Text: as §1, §2

[3] = system: dL9.2 (SEQ. ID. NO. 2); test: Binding/activation of fluorogen by FAP dL9.2
Text: A precursor FAP designated dL9 (SEQ. ID. NO. 1) was designed using the coding sequence of the light-chain from HL9-MG, a scFv originally isolated for binding and fluorescence activation of malachite green-based fluorogenic dyes (Szent-Gyorgyi, et al. 2008, incorporated herein by reference). This FAP was assembled as a tandem dimer of light chains by attaching a glycine-serine linker and a codon-optimized copy of the light chain gene to the original light chain via PCR. […] Mutagenesis and library generation by electroporation was performed in a previously described manner (Chao, et al., Isolating and engineering human antibodies using yeast surface display, Nature Protocols, vol. 1, No. 2, pp. 755-768 (2006)), but screening employed the protein secretion vector pPNL9, rather than the surface display vector pPNL6: Individual S. cerevisiae expressing FAP mutants were incubated with cell-permeant fluorogen MG-ester and the brightest activators were cloned via flow cytometry. Clones were induced for FAP production in tryptone-based protein secretion media (Szent-Gyorgyi, et al. 2008) and media was screened for activation of MG-ester after five days of induction at 20° C. This screen yielded dL9.2 (SEQ. ID. NO. 2): a bright, stable FAP amenable to high levels of expression. […]

[4] = system: dL9.5 (SEQ. ID. NO. 3); test: Binding of fluorogen by FAP dL9.5
Text: The V70A mutation was propagated to both light chains to produce dL9.3 (SEQ. ID. NO. 31), which was immediately subjected to mutagenesis and screening in the surface-display format described previously (Chao, et al., Nature Protocols (2006)) in the presence of SKC602. The brightest clone collected from this screen was designated dL9.5 (SEQ. ID. NO. 3), and sequencing described exactly two mutations—tyrosine 96 to histidine—on both light chains.

Row | SMILES | Induction of NIR fluorescence by mL9.5 [1] | Induction of NIR fluorescence by mL9.3 [2] | Binding and fluorescence activation by dL9.2 [3] | Binding by dL9.5 [4]
1 | CN(C)c1ccc(/C=C/C(=C2C=CC(=[N+](C)C)C=C2)c2ccc(N(C)C)cc2)cc1 [SKC602, (E)-N-(4-(1,3-bis(4-(dimethylamino)phenyl)allylidene)cyclohexa-2,5-dien-1-ylidene)-N-methylmethanaminium] | induce NIR fluorescence | induces fluorescence | bind and activate fluorescence | 
2 | CN(C)c1ccc(C(/C=C/c2ccc(N(C)CCCCC(=O)NC(CCS(=O)(=O)O)C(=O)O)cc2)=C2C=CC(=[N+](C)C)C=C2)cc1 (stereo not shown) [SKC728] | induce NIR fluorescence | induces fluorescence | bind | bind

From patent US9023998B2, “Near infrared fluorogen and fluorescent activating proteins for in vivo imaging and live-cell biosensing” (Carnegie Mellon University, priority 2013, dated 2015)
